Experimental data reported in BindingDB's records for PubMed 2968449 (Squibb Institute For Medical Research, 1988).
“And” between values parts separate entries of the source, which are not always exact repeats. Equal entries are not always repeated.

Target: T1, Thromboxane A2 receptor (Homo sapiens, UniProt P21731)
T1 sequence (P21731 whole entry): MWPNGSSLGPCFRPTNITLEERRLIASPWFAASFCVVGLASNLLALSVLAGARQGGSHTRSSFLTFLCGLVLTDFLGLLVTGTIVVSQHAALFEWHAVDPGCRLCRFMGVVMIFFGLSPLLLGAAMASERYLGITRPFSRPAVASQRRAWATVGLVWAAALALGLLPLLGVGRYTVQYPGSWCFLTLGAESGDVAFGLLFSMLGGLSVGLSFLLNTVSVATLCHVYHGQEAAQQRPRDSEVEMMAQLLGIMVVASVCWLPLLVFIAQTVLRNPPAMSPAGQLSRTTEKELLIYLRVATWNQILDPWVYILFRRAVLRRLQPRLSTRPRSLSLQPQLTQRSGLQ

| Ki | SMILES |
| --- | --- |
| 0.0496 µM and 0.0283 µM | CCCCCCC(=O)NCC(=O)NCC1C2CCC(O2)C1CC=CCCCC(=O)O (centres undefined) [CAS_119571] |
| 0.0071 µM and 0.0044 µM | CCCCCC(O)C=CC1C2COC(C2)C1CC=CCCCC(=O)O (centres undefined) [NSC_114865] |
| 0.0727 µM and 0.0318 µM | CC(c1ccccc1)C(O)C=CC1C2CCC(O2)C1CC=CCCCC(=O)O (centres undefined) [NSC_3036123] |
| 0.0187 µM and 0.0036 µM | CCCCC[C@H](O)/C=C/C1[C@@H](C/C=C\CCCC(=O)O)[C@H]2CO[C@@H]1C2 (some centres undefined) [U46619] |
